Test results published in patent US20260042731A1, “(2,4-DICHLOROPHENOXY)ACETIC ACID ANALOGS” (CORTEVA AGRISCIENCE LLC, priority 2022, published 2026).
Where two headings read alike, the source gives them in different places.

Key:
Type in all cases: in vivo
[1] = system: glyphosate resistant Conyza canadensis (L.) (ERICA), horseweed; experiment: Postemergence herbicide evaluation, growth of Conyza canadensis (ERICA); conditions: Erigeron canadensis, post-emergence, read-out: Ave. ERICA, percent reduction in plant size relative to the untreated control; for pest or weed control at 560 g/ha: 560 g ae/ha; for pest or weed control at 280 g/ha: 280 g ae/ha
[2] = system: Abutilon theophrasti (ABUTH), velvetleaf; experiment: Postemergence herbicide evaluation, growth of Abutilon theophrasti (ABUTH); conditions: Abutilon theophrasti, post-emergence, read-out: AVE. ABUTH, percent reduction in plant size relative to the untreated control; for pest or weed control at 560 g/ha: 560 g ae/ha; for pest or weed control at 280 g/ha: 280 g ae/ha
[3] = system: Ambrosia artemisiifolia (AMBEL), common ragweed; experiment: Postemergence herbicide evaluation, growth of Ambrosia artemisiifolia (AMBEL); conditions: Ambrosia artemisiifolia, post-emergence, read-out: AVE. AMBEL, percent reduction in plant size relative to the untreated control; for pest or weed control at 560 g/ha: 560 g ae/ha; for pest or weed control at 280 g/ha: 280 g ae/ha
[4] = system: weeds ABUTH, AMATA, AMBEL, CHEAL, ERICA; experiment: Postemergence herbicide evaluation, overall average % weed control (ABUTH, AMATA, AMBEL, CHEAL, ERICA); conditions: post-emergence, read-out: Overall Ave % Weed Control; for pest or weed control at 560 g/ha: 560 g ae/ha; for pest or weed control at 280 g/ha: 280 g ae/ha
[5] = system: Chenopodium album (CHEAL), common lambsquarters; experiment: Postemergence herbicide evaluation, growth of Chenopodium album (CHEAL); conditions: Chenopodium album, post-emergence, read-out: Ave. CHEAL, percent reduction in plant size relative to the untreated control; for pest or weed control at 560 g/ha: 560 g ae/ha; for pest or weed control at 280 g/ha: 280 g ae/ha
[6] = system: Amaranthus rudis (AMATA), tall water hemp; experiment: Postemergence herbicide evaluation, growth of Amaranthus rudis (AMATA); conditions: Amaranthus tuberculatus, post-emergence, read-out: Ave. AMATA, percent reduction in plant size relative to the untreated control; for pest or weed control at 560 g/ha: 560 g ae/ha; for pest or weed control at 280 g/ha: 280 g ae/ha

SMILES	pest or weed control at 560 g/ha ([1]; 168 h, 7 DAA) [%]	pest or weed control at 560 g/ha ([1]; 336 h, 14 DAA) [%]	pest or weed control at 560 g/ha ([1]; 504 h, 21 DAA) [%]	pest or weed control at 560 g/ha ([2]; 168 h, 7 DAA) [%]	pest or weed control at 560 g/ha ([2]; 336 h, 14 DAA) [%]	pest or weed control at 560 g/ha ([2]; 504 h, 21 DAA) [%]	pest or weed control at 560 g/ha ([3]; 168 h, 7 DAA) [%]	pest or weed control at 560 g/ha ([3]; 336 h, 14 DAA) [%]	pest or weed control at 560 g/ha ([3]; 504 h, 21 DAA) [%]	pest or weed control at 560 g/ha ([4]; 168 h, 7 DAA) [%]	pest or weed control at 560 g/ha ([4]; 336 h, 14 DAA) [%]	pest or weed control at 560 g/ha ([4]; 504 h, 21 DAA) [%]	pest or weed control at 560 g/ha ([5]; 168 h, 7 DAA) [%]	pest or weed control at 560 g/ha ([5]; 336 h, 14 DAA) [%]	pest or weed control at 560 g/ha ([5]; 504 h, 21 DAA) [%]	pest or weed control at 560 g/ha ([6]; 168 h, 7 DAA) [%]	pest or weed control at 560 g/ha ([6]; 336 h, 14 DAA) [%]	pest or weed control at 560 g/ha ([6]; 504 h, 21 DAA) [%]	pest or weed control at 280 g/ha ([1]; 168 h, 7 DAA) [%]	pest or weed control at 280 g/ha ([1]; 336 h, 14 DAA) [%]	also measured
COc1ccc(/C=N/OC(=O)COc2ccc(Cl)cc2Cl)cc1 [Compound A31]	82.5	89.5	98.5	40	57.5	70	62.5	75	100	68.5	83	86.4	82.5	97	96	75	96	67.5	–	–	–
O=C(COc1ccc(Cl)cc1Cl)Nc1c(Cl)c(F)nc(F)c1Cl [Compound D25]	10	12.5	12.5	3.5	0	2.5	40	7.5	7.5	21.2	10.5	8	45	7.5	15	7.5	25	2.5	7.5	20	pest or weed control at 280 g/ha ([1]; 504 h, 21 DAA): 10%; pest or weed control at 280 g/ha ([2]; 168 h, 7 DAA): 0%; pest or weed control at 280 g/ha ([2]; 336 h, 14 DAA): 0%; pest or weed control at 280 g/ha ([2]; 504 h, 21 DAA): 0%; pest or weed control at 280 g/ha ([3]; 168 h, 7 DAA): 35%; pest or weed control at 280 g/ha ([3]; 336 h, 14 DAA): 15%; pest or weed control at 280 g/ha ([3]; 504 h, 21 DAA): 10%; pest or weed control at 280 g/ha ([4]; 168 h, 7 DAA): 16.5%; pest or weed control at 280 g/ha ([4]; 336 h, 14 DAA): 10%; pest or weed control at 280 g/ha ([4]; 504 h, 21 DAA): 7.5%; pest or weed control at 280 g/ha ([5]; 168 h, 7 DAA): 35%; pest or weed control at 280 g/ha ([5]; 336 h, 14 DAA): 0%; pest or weed control at 280 g/ha ([5]; 504 h, 21 DAA): 12.5%; pest or weed control at 280 g/ha ([6]; 168 h, 7 DAA): 5%; pest or weed control at 280 g/ha ([6]; 336 h, 14 DAA): 15%; pest or weed control at 280 g/ha ([6]; 504 h, 21 DAA): 5%
O=C(COc1ccc(Cl)cc1Cl)Oc1cccnn1 [Compound E2]	73	85	90	85	93	98	63	95	99	74	89	93	75	88	94	73	83	84	70	88	pest or weed control at 280 g/ha ([1]; 504 h, 21 DAA): 94%; pest or weed control at 280 g/ha ([2]; 168 h, 7 DAA): 85%; pest or weed control at 280 g/ha ([2]; 336 h, 14 DAA): 93%; pest or weed control at 280 g/ha ([2]; 504 h, 21 DAA): 98%; pest or weed control at 280 g/ha ([3]; 168 h, 7 DAA): 63%; pest or weed control at 280 g/ha ([3]; 336 h, 14 DAA): 90%; pest or weed control at 280 g/ha ([3]; 504 h, 21 DAA): 94%; pest or weed control at 280 g/ha ([4]; 168 h, 7 DAA): 72%; pest or weed control at 280 g/ha ([4]; 336 h, 14 DAA): 83%; pest or weed control at 280 g/ha ([4]; 504 h, 21 DAA): 86%; pest or weed control at 280 g/ha ([5]; 168 h, 7 DAA): 65%; pest or weed control at 280 g/ha ([5]; 336 h, 14 DAA): 63%; pest or weed control at 280 g/ha ([5]; 504 h, 21 DAA): 63%; pest or weed control at 280 g/ha ([6]; 168 h, 7 DAA): 78%; pest or weed control at 280 g/ha ([6]; 336 h, 14 DAA): 80%; pest or weed control at 280 g/ha ([6]; 504 h, 21 DAA): 83%
